Reference: patent US20260132132A1, “3A,4,5,6-TETRAHYDRO-1 H-PYRAZOLO[3,4-C]PYRIDIN-7(7AH)-ONE DERIVATIVES AS FACTOR XIIA INHIBITORS” (KALVISTA PHARMACEUTICALS LIMITED, priority 2022, published 2026)

biological target: T1, Human Factor XIIa (hFXIIa) (Homo sapiens, UniProt P00748); experiment: Determination of Human Factor XIIa (hFXIIa) inhibition, fluorogenic substrate IC50 assay; type: biochemical; conditions: fluorogenic substrate H-DPro-Phe-Arg-AFC at Km, 25° C., read-out: Human FXIIa IC50
T1 construct: purchased Enzyme Research Laboratories
T1 sequence (P00748 373-615 limits assumed): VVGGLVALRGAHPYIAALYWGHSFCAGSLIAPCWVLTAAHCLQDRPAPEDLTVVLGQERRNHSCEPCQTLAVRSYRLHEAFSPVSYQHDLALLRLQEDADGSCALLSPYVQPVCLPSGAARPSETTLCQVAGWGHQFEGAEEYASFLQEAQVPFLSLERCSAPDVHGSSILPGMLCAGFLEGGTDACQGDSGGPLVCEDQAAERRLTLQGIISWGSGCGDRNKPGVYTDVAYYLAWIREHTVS
T1 sequence (P00748 20-372 partner limits assumed): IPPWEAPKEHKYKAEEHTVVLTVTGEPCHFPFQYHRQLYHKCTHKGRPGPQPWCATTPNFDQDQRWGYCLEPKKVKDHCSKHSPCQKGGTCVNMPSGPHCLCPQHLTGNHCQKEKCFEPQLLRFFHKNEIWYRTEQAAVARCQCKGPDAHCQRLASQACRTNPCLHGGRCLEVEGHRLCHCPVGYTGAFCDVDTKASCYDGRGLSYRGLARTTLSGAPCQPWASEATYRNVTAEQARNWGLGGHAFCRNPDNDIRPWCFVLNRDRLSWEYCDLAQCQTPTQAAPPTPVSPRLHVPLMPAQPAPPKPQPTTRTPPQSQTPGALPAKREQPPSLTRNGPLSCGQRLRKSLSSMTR
Procedure: Determination of Human Factor XIIa (hFXIIa) inhibition
The Km for the cleavage of the substrate by hFXIIa was determined by standard transformation of the Michaelis-Menten equation, with subsequent inhibition assays performed at substrate Km concentration.

| SMILES | IC50 |
| --- | --- |
| COCCN(C)C(=O)c1cccc(N2CCc3c(C(=O)NCC4CC4)nn(-c4cccc(Cl)c4)c3C2=O)c1 [Example 1311, 1-(3-chlorophenyl)-N-(cyclopropylmethyl)-6-(3-((2-methoxyethyl)(methyl)carbamoyl)phenyl)-7-oxo-4,5,6,7-tetrahydro-1H-pyrazolo[3,4-c]pyridine-3-carboxamide] | 3000 to 10000 nM |
| CN(CCO)C(=O)c1cccc(N2CCc3c(C(=O)NCC4CC4)nn(-c4cccc(Cl)c4)c3C2=O)c1 [Example 1312, 1-(3-chlorophenyl)-N-(cyclopropylmethyl)-6-(3-((2-hydroxyethyl)(methyl)carbamoyl)phenyl)-7-oxo-4,5,6,7-tetrahydro-1H-pyrazolo[3,4-c]pyridine-3-carboxamide] | 3000 to 10000 nM |
| O=C(NCC1CC1)c1nn(-c2cccc(Cl)c2)c2c1CCN(c1cccc(N3CCOCC3=O)c1)C2=O [Example 1313, 1-(3-chlorophenyl)-N-(cyclopropylmethyl)-7-oxo-6-(3-(3-oxomorpholino)phenyl)-4,5,6,7-tetrahydro-1H-pyrazolo[3,4-c]pyridine-3-carboxamide] | 3000 to 10000 nM |
| O=C(NCC1CC1)c1nn(-c2cccc(Cl)c2)c2c1CCN(c1cccc(CN3CCOC3=O)c1)C2=O [Example 1316, 1-(3-chlorophenyl)-N-(cyclopropylmethyl)-7-oxo-6-(3-((2-oxooxazolidin-3-yl)methyl)phenyl)-4,5,6,7-tetrahydro-1H-pyrazolo[3,4-c]pyridine-3-carboxamide] | 10000 to 40000 nM |
| CCOC(=O)c1nn(-c2cccc(Cl)c2)c2c1CCN(c1cccc(CN(C)C(=O)CO)c1)C2=O [Example 1322, ethyl 1-(3-chlorophenyl)-6-(3-((2-hydroxy-N-methylacetamido)methyl)phenyl)-7-oxo-4,5,6,7-tetrahydro-1H-pyrazolo[3,4-c]pyridine-3-carboxylate] | 10000 to 40000 nM |
| CCOC(=O)c1nn(-c2cccc(Cl)c2)c2c1CCN(c1cccc(N3CCCC3=O)c1)C2=O [Example 1323, ethyl 1-(3-chlorophenyl)-7-oxo-6-(3-(2-oxopyrrolidin-1-yl)phenyl)-4,5,6,7-tetrahydro-1H-pyrazolo[3,4-c]pyridine-3-carboxylate] | 1000 to 3000 nM |
| CCOC(=O)c1nn(-c2cccc(Cl)c2)c2c1CCN(c1ccc(OC)c(C(=O)N(C)C)c1)C2=O [Example 1324, ethyl 1-(3-chlorophenyl)-6-(3-(dimethylcarbamoyl)-4-methoxyphenyl)-7-oxo-4,5,6,7-tetrahydro-1H-pyrazolo[3,4-c]pyridine-3-carboxylate] | 1000 to 3000 nM |
| CCOC(=O)c1nn(-c2cccc(Cl)c2)c2c1CCN(c1cccc(N3CC(C(F)(F)F)CC3=O)c1)C2=O (stereo not drawn) [Example 1405, ethyl 1-(3-chlorophenyl)-7-oxo-6-(3-(2-oxo-4-(trifluoromethyl)pyrrolidin-1-yl)phenyl)-4,5,6,7-tetrahydro-1H-pyrazolo[3,4-c]pyridine-3-carboxylate] | 10000 to 40000 nM |
| CN1CCc2ccc(N3CCc4c(C(=O)NCC5CC5)nn(-c5csc(Cl)c5)c4C3=O)cc2C1=O [Example 2015] | 1000 to 3000 nM |
| CN1CCc2ccc(N3CCc4c(C(=O)NCC5CC5)nn(-c5cc(Cl)ccn5)c4C3=O)cc2C1=O [Example 2016, 1-(4-chloropyridin-2-yl)-N-(cyclopropylmethyl)-6-(2-methyl-1-oxo-1,2,3,4-tetrahydroisoquinolin-7-yl)-7-oxo-4,5,6,7-tetrahydro-1H-pyrazolo[3,4-c]pyridine-3-carboxamide] | 3000 to 10000 nM |
| CN1CCc2ccc(N3CCc4c(C(=O)NCC5CC5)nn(-c5cncc(Cl)c5)c4C3=O)cc2C1=O [Example 2021, 1-(5-chloropyridin-3-yl)-N-(cyclopropylmethyl)-6-(2-methyl-1-oxo-1,2,3,4-tetrahydroisoquinolin-7-yl)-7-oxo-4,5,6,7-tetrahydro-1H-pyrazolo[3,4-c]pyridine-3-carboxamide] | 3000 to 10000 nM |
| CCNC(=O)c1nn(-c2cnc(N)c(Cl)c2)c2c1CCN(c1ccc3c(c1)C(=O)N(C)CC3)C2=O [Example 2031, 1-(6-amino-5-chloropyridin-3-yl)-N-ethyl-6-(2-methyl-1-oxo-1,2,3,4-tetrahydroisoquinolin-7-yl)-7-oxo-4,5,6,7-tetrahydro-1H-pyrazolo[3,4-c]pyridine-3-carboxamide] | > 4000 nM |
| CCNC(=O)c1nn(-c2ccc(C)cc2F)c2c1CCN(c1ccc3c(c1)C(=O)N(C)CC3)C2=O [Example 2034, N-ethyl-1-(2-fluoro-4-methylphenyl)-6-(2-methyl-1-oxo-1,2,3,4-tetrahydroisoquinolin-7-yl)-7-oxo-4,5,6,7-tetrahydro-1H-pyrazolo[3,4-c]pyridine-3-carboxamide] | 10000 to 40000 nM |

Next, values leading:

| IC50 | SMILES |
| --- | --- |
| 100 to 300 nM | CN1CCc2ccc(N3CCc4c(C(=O)NC56CC(O)(C5)C6)nn(-c5cccc(Cl)c5)c4C3=O)cc2C1 [Example 1437, 1-(3-chlorophenyl)-N-(3-hydroxybicyclo[1.1.1]pentan-1-yl)-6-(2-methyl-1,2,3,4-tetrahydroisoquinolin-7-yl)-7-oxo-4,5,6,7-tetrahydro-1H-pyrazolo[3,4-c]pyridine-3-carboxamide] |
| 10 to 100 nM | CN1CCc2ccc(N3CCc4c(C(=O)N[C@H](CO)c5ccccc5)nn(-c5cccc(Cl)c5F)c4C3=O)cc2C1 [Example 2001, (S)-1-(3-chloro-2-fluorophenyl)-N-(2-hydroxy-1-phenylethyl)-6-(2-methyl-1,2,3,4-tetrahydroisoquinolin-7-yl)-7-oxo-4,5,6,7-tetrahydro-1H-pyrazolo[3,4-c]pyridine-3-carboxamide] |
| 300 to 1000 nM | COc1ccc(-n2nc(C(=O)NCc3cnccc3C)c3c2C(=O)N(c2ccc4c(c2)CN(CCO)CC4)CC3)cc1 [Example 2003, 6-(2-(2-hydroxyethyl)-1,2,3,4-tetrahydroisoquinolin-7-yl)-1-(4-methoxyphenyl)-N-((4-methylpyridin-3-yl)methyl)-7-oxo-4,5,6,7-tetrahydro-1H-pyrazolo[3,4-c]pyridine-3-carboxamide] |
| 300 to 1000 nM | Cc1cccc(-n2nc(C(=O)NCC3CC3)c3c2C(=O)N(c2ccc4c(c2)C(=O)N(C)CC4)CC3)c1 [Example 2011, N-(cyclopropylmethyl)-6-(2-methyl-1-oxo-1,2,3,4-tetrahydroisoquinolin-7-yl)-7-oxo-1-(m-tolyl)-4,5,6,7-tetrahydro-1H-pyrazolo[3,4-c]pyridine-3-carboxamide] |
| 300 to 1000 nM | CN1CCc2ccc(N3CCc4c(C(=O)NCC5CC5)nn(-c5cc(Cl)cc(C(N)=O)c5)c4C3=O)cc2C1=O [Example 2014, 1-(3-carbamoyl-5-chlorophenyl)-N-(cyclopropylmethyl)-6-(2-methyl-1-oxo-1,2,3,4-tetrahydroisoquinolin-7-yl)-7-oxo-4,5,6,7-tetrahydro-1H-pyrazolo[3,4-c]pyridine-3-carboxamide] |
| 10 to 100 nM | CCOC(=O)c1nn(-c2cc(C)cc(CN)c2)c2c1CCN(c1ccc3c(c1)C(=O)N(C)CC3)C2=O [Example 2022, ethyl 1-(3-(aminomethyl)-5-methylphenyl)-6-(2-methyl-1-oxo-1,2,3,4-tetrahydroisoquinolin-7-yl)-7-oxo-4,5,6,7-tetrahydro-1H-pyrazolo[3,4-c]pyridine-3-carboxylate] |
| 300 to 1000 nM | CCOC(=O)c1nn(-c2cccc(C)n2)c2c1CCN(c1ccc3c(c1)C(=O)N(C)CC3)C2=O [Example 2023, ethyl 6-(2-methyl-1-oxo-1,2,3,4-tetrahydroisoquinolin-7-yl)-1-(6-methylpyridin-2-yl)-7-oxo-4,5,6,7-tetrahydro-1H-pyrazolo[3,4-c]pyridine-3-carboxylate] |
| 300 to 1000 nM | CN1CCc2ccc(-n3cnc4c(C#N)nn(-c5cccc(Cl)c5)c4c3=O)cc2C1 [Example 3001, 1-(3-chlorophenyl)-6-(2-methyl-1,2,3,4-tetrahydroisoquinolin-7-yl)-7-oxo-6,7-dihydro-1H-pyrazolo[4,3-d]pyrimidine-3-carbonitrile] |
| 100 to 300 nM | Cc1nc2c(C#N)nn(-c3cccc(Cl)c3)c2c(=O)n1-c1ccc2c(c1)CN(C)CC2 [Example 3002, 1-(3-Chlorophenyl)-5-methyl-6-(2-methyl-1,2,3,4-tetrahydroisoquinolin-7-yl)-7-oxo-6,7-dihydro-1H-pyrazolo[4,3-d]pyrimidine-3-carbonitrile] |
| 300 to 1000 nM | Cc1nc2c(C(=O)NCC3CC3)nn(-c3cccc(Cl)c3F)c2c(=O)n1-c1ccc2c(c1)C(=O)N(C)CCO2 [Example 3023, 1-(3-chloro-2-fluorophenyl)-N-(cyclopropylmethyl)-5-methyl-6-(4-methyl-5-oxo-2,3,4,5-tetrahydrobenzo[f][1,4]oxazepin-7-yl)-7-oxo-6,7-dihydro-1H-pyrazolo[4,3-d]pyrimidine-3-carboxamide] |
| 100 to 300 nM | Cc1ccncc1CNC(=O)n1nc(-c2cccc(Cl)c2)c2c1CCN(c1ccc3c(c1)CN(CCO)CC3)C2=O [Example 4003, 3-(3-chlorophenyl)-5-(2-(2-hydroxyethyl)-1,2,3,4-tetrahydroisoquinolin-7-yl)-N-((4-methylpyridin-3-yl)methyl)-4-oxo-4,5,6,7-tetrahydro-1H-pyrazolo[4,3-c]pyridine-1-carboxamide] |
